Data as given in paper PMC5351712 (Future Science OA, 2017).
Like-named read-outs stand apart in the source and are kept apart here.

Tests used:
[1] = Stability of EPL and EPLT in human plasma under different storage conditions; format: physicochemical; settings: n = 6
Experimental: The bench-top stability was performed for each analyte in plasma was determined by three QC levels in six replicates for 8 h at ambient temperature (24 ± 2°C). […] For determination of freeze–thaw stability of the analytes, the spiked plasma samples were frozen for 24 h at -20°C and thawed unassisted at room temperature. When completely thawed, the samples were refrozen for 12–24 h at -20°C. On repeating the freeze−thaw cycle for 2 days, bioanalysis was done on the third day. For short-term stability, frozen plasma samples (-20°C) were kept at room temperature for 4 h before sample processing. Long-term stability was evaluated after storing the frozen plasma samples at -20°C for the whole duration of the study which was almost 30 days. […]

[2] = set-up: method as in GC–MS method; settings: single oral 20 mg EPL, 24 healthy adult subjects, mean ± SD; analyte not stated; ref GC–MS method; cited from earlier work
[3] = cited from earlier work; for Time of maximum plasma concentration: after oral administration of EPL
[4] = set-up: method as in ref 7 = [7]; 7 Yoon KH Kim W Park J Kim HJ Determination of enalapril in human plasma by high performance liquid chromatography-electrospray ionization mass spectrometry Bull. Korean Chem. Soc. 25 878 880 2004; settings: after oral intake, mean value; cited from earlier work
[5] = single oral 20 mg EPL maleate, 12 healthy volunteers; cited from earlier work
[6] = set-up: method as in ref 36 = [36]; 36 Remko M Acidity, lipophilicity, solubility, absorption, and polar surface area of some ACE inhibitors Chem. Pap. 61 133 141 2007; settings: cited from earlier work
[7] = cited from earlier work
[8] = Autosampler stability 24 h at 24°C, QC 3 ng/ml
[9] = Autosampler stability 24 h at 24°C, QC 200 ng/ml
[10] = Autosampler stability 24 h at 24°C, QC 400 ng/ml
[11] = Bench top stability for 8 h, QC 3 ng/ml
[12] = Bench top stability for 8 h, QC 200 ng/ml
[13] = Bench top stability for 8 h, QC 400 ng/ml
[14] = Freeze and thaw stability at -20°C (3 cycles), QC 3 ng/ml
[15] = Freeze and thaw stability at -20°C (3 cycles), QC 200 ng/ml
[16] = Freeze and thaw stability at -20°C (3 cycles), QC 400 ng/ml
[17] = Long-term stability at -20.0°C for 30 days, QC 3 ng/ml
[18] = Long-term stability at -20.0°C for 30 days, QC 200 ng/ml
[19] = Long-term stability at -20.0°C for 30 days, QC 400 ng/ml

Row | Compound | Accuracy after storage [1, 8] | Mean concentration after storage [1, 8] | Accuracy after storage [1, 9] | Mean concentration after storage [1, 9] | Accuracy after storage [1, 10] | Mean concentration after storage [1, 10] | Mean concentration after storage [1, 11] | Accuracy after storage [1, 12] | Mean concentration after storage [1, 12] | Accuracy after storage [1, 13] | Mean concentration after storage [1, 13] | Accuracy after storage [1, 14] | Mean concentration after storage [1, 14] | Accuracy after storage [1, 15] | Mean concentration after storage [1, 15] | Accuracy after storage [1, 16] | Mean concentration after storage [1, 16] | Accuracy after storage [1, 17] | Mean concentration after storage [1, 17] | Accuracy after storage [1, 18] | also measured
1 | CCOC(=O)[C@H](CCc1ccccc1)N[C@@H](C)C(=O)N1CCC[C@H]1C(=O)O [EPL, enalapril] | 92.6446% | 2.7500 ng/mL | 100.4675% | 200.9350 ng/mL | 92.6098% | 384.6733 ng/mL | 2.7350 ng/mL | 100.3303% | 200.9567 ng/mL | 99.2485% | 412.2483 ng/mL | 91.6339% | 2.7200 ng/mL | 94.7244% | 189.7283 ng/mL | 93.5010% | 388.3750 ng/mL | 90.9601% | 2.7000 ng/mL | 98.6628% | Accuracy after storage [1, 11]: 92.1392%; Mean concentration after storage [1, 18]: 197.6167 ng/mL; Accuracy after storage [1, 19]: 94.6810%; Mean concentration after storage [1, 19]: 393.2767 ng/mL; T1/2 [2]: 4.2 ± 1.6 h; Plasma level after 4 h ([3]; after 4 h not detected above this level): ≤ 10 ng/mL; Time of maximum plasma concentration [3]: ≤ 1 h; Dose recovered in the urine and feces as EPL or EPLT [3]: approximately 94%; Influence of food on absorption after oral administration [3]: not influenced by the presence of food; Terminal half-life [3]: approximately 2 h; Bioavailability ([3]; healthy subjects, absorbed from the GI tract): 60–70%; Tmax [4]: 0.96 ± 0.36 h; Cmax [5]: 152.1 ng/mL; pK a (strongest acidic) [6]: 3.0; polar surface area [6]: 95.9
2 | C[C@H](N[C@@H](CCc1ccccc1)C(=O)O)C(=O)N1CCC[C@H]1C(=O)O [EPLT, enalaprilat] | 98.5516% | 2.6650 ng/mL | 93.8950% | 187.7900 ng/mL | 92.5255% | 365.4017 ng/mL | 2.8833 ng/mL | 102.2798% | 190.4450 ng/mL | 98.0713% | 387.3033 ng/mL | 87.8274% | 2.3750 ng/mL | 95.3222% | 177.4900 ng/mL | 88.2284% | 348.4317 ng/mL | 92.3267% | 2.4967 ng/mL | 105.6740% | Mean concentration after storage [1, 18]: 196.7650 ng/mL; Accuracy after storage [1, 19]: 99.7772%; Mean concentration after storage [1, 19]: 394.0400 ng/mL; AUC0–t [7]: 401 ± 89 ng·h/mL; AUC0–∞ [7]: 420 ± 91 ng·h/mL; Cmax [7]: 47.5 ± 12.4 ng/mL; T1/2 [7]: 6.71 ± 2.22 h; Tmax [7]: 4.20 ± 1.06 h; Half-life ([3]; EPLT after administration of EPL): 30 to 35 h; Time of maximum plasma concentration [3]: 3 to 4 h; Cmax [5]: 88.5 ng/mL
